Assay results: patent publication EP0719267B1, “SECOND MESSENGER CELL SIGNALING INHIBITORS” (CELL THERAPEUTICS, INC., priority 1993, dated 1994)

Assays:
[1] = test system: transformed cells (Ras 3T3) and normal 3T3 cells; experiment: Cytotoxicity for transformed versus non-transformed cells; type: cell-based; conditions: 1, 10 and 100 µM
Method: This example compares cytotoxicity results for inventive compound no. 27 for transformed cells and non-transformed cells. In transformed cells (Ras 3T3) and in normal 3T3 cells, cytotoxicity of compound no. 27 at concentrations of 1, 10 and 100 µM was determined. Figure 18 reports results obtained in this assay. At each of the above concentrations, compound no.

[2] = test system: mixed lymphocyte reaction assay culture; experiment: Cell percent viability in mixed lymphocyte reaction culture; type: cell-based; conditions: 100 µM, six days of cell culture
Method: Cell percent viability in mixed lymphocyte reaction assay culture was determined after six days of cell culture. […] Control cells unexposed to drugs are generally 78 to 85% viable under these culture conditions. In this assay, all inventive compounds were present at 100 µM concentrations, generally well above corresponding IC50 values in this assay (see fig. 2D). […] Compounds nos.

[3] = test system: murine thymocyte proliferation; experiment: Thymocyte proliferation co-stimulated by ConA and IL-2 (tritiated thymidine); type: cell-based, Balb/C mice; conditions: ConA and IL-2 co-stimulation
Method: (§1) ConA, used to activate CD3, induces T-cell proliferation and differentiation. Thymuses, obtained from normal, female Balb/C mice, were dissociated and plated into 96-well plates at a density of 2 x 10^5 cells/well. ConA (0.25 mg/ml) and IL-2 (15 U/ml) were added to the wells. The cells were incubated for 4 days at 37°C. On day 4, the cells were pulsed with tritiated thymidine and incubated for an additional 4 hours. The amount of tritiated thymidine dye incorporated by the harvested cells was determined in a liquid scintillation counter. Drug doses (shown in figs. 1A and 1B) were added two hours prior to ConA and IL-2 activation.
as §1, with “Thymuses,” for “ConA, used to activate CD3, induces T-cell proliferation and differentiation. Thymuses,”, “37 °C.” for “37°C.”, “Doses” for “Drug doses”, “26A, 26B” for “1A”, “26C)” for “1B)”
In another in vitro protocol, thymocyte proliferation was induced by sub-mitogenic doses of Con A (0.25 µg/ml) and IL-2 (20 ng/ml). Cells were stimulated for 96 hours, prior to addition of ^3H-TdR for 4 hours. The cells were harvested and incorporation of ^3H-TdR was determined.
45 on co-stimulated thymocyte proliferation. In an assay procedure, murine thymocytes were stimulated with ConA and IL-2 with 1 µM compound no. 45 added either 1 hour prior to IL-2 (-1), simultaneous with IL-2 (0) or at various times following IL-2 addition (1-92 hour). At 92 hours the thymocytes were pulsed with ^3H-TdR, harvested and counted by scintillation 4 hours later.

[4] = test system: murine lymph node cell proliferation; experiment: Lymph node cell proliferation stimulated by antigen; type: cell-based; conditions: Mus musculus
Text: This example illustrates activity of representative inventive compounds nos. 27, 49, 50, 45, 43 or 41 (above) in assays detecting activity in response to cell stimulus. One assay, murine lymph node cell proliferation (stimulated by anitgen) was used to determine inhibitive activity of compound no. 27 on proliferation of the lymph node cells. This in vitro assay is an immune suppressive/autoimmune treatment predictive assay emphasizing cellular or T cell immune response. The assay used murine T cells that proliferate in vitro in response to a soluble protein antigen, used to prime the T cells in vivo. Compound was added to the cells at doses indicated in figures 7 and 8 (showing assay results) two hours prior to activation with […]. Compound no. 27 inhibited T cell proliferation in a dose-response manner. IC50 values for compound no.

[5] = test system: proliferative PMBC response to allogeneic stimulation; experiment: Two-way mixed lymphocyte reaction; type: cell-based
Text: This example illustrates therapeutic potential for various autoimmune and inflammatory diseases of the inventive compounds by comparing potency (inhibitive activity) with cytotoxicity data obtained using the following indicative assay procedures. In a mixed lymphocyte reaction assay of compounds nos. […] Compounds nos. […] 2A and 2B. Both compounds nos. […] 2C.
Compound no. […] Compound no.

[6] = test system: murine splenocyte proliferation; experiment: Splenocyte (B cell) proliferation stimulated by anti-mu/anti-IgM and IL-4; type: cell-based; conditions: Mus musculus, anti-mu and IL-4 12.5 ng/ml
Method: This example illustrates inhibitive effects of compounds nos. 27 and 28 on murine splenocyte proliferation stimulated by anti-mu ([…]) and interleukin-4 (IL-4, 12.5 ng/ml). This in vitro assay, described above, is indicative of immune-suppressive/autoimmune treatment assay emphasizing humoral or B cell immune response. The inventive compound was added to the cells at the doses indicated two hours prior to activation with anti-mu and IL-4. Both compounds nos. 27 and 28 inhibited splenocyte proliferation in a dose-response manner. IC50 values for compounds nos. Background counts were less than 200 cpm.
In figure 57, results shown illustrate that inventive compound no. 45 inhibits B cell proliferation. Murine splenocytes were stimulated with anti-IgM antibodies (10 µg/ml) and murine IL-4 (12.5 ng/ml). Cells were pulsed with ^3HTdR at 44 hours, harvested 4 hours later, and the incorporation of ^3H-TdR was determined by liquid scintillation.

mast cell degranulation = experiment: Serotonin release assay for inhibition of mast cell degranulation; type: cell-based; conditions: Mast cell; Concentration 50 µM
Text: This assay provides an in vitro model for an allergy and asthma therapeutic product. […]

[7] = test system: murine thymocyte proliferation; experiment: Thymocyte proliferation stimulated by Con A and IL-1α; type: cell-based; conditions: Mus musculus, 2 h, added two hours prior to Con A and IL-1α
Method: In a first part of this example, compounds nos. 30, 33, 28 and 27 (see above for chemical names and structures) show effective inhibition of murine thymocyte proliferation stimulated by Con A and interleukin 1 alpha (IL-1α). Compounds nos. 30, 33, 28 and 27 were added to cell cultures two hours prior to activation with Con A and IL-1α in a thymocyte co-stimulation procedure akin to that discussed in example 21. […] IC50 values determined for each inventive compound tested are as follow: compound no. […] Background counts in the assay were less than 200 cpm.

Structure (SMILES): Cn1cnc2c1c(=O)n(CCCCCCCC(O)CNCc1ccccc1)c(=O)n2C (stereo not shown) [compound no. 27, 1-(8-hydroxy-9-(N-benzyl)aminononyl)-3,7-dimethylxanthine]
- differential cytotoxicity [1]: more cytotoxic for the cancer cells than normal cells
- cytotoxicity (percent viability) [2]: little or no cytotoxicity
- inhibition of thymocyte proliferation [3]: the most potent immune-suppressive effects
- IC50 ([4]; first experiment (fig. 7)): 23.1 µM
- IC50 ([4]; second experiment (fig. 8)): 19 µM
- IC50 ([5]; Lymphocyte, figs. 2A-2C): 40 µM
- immune suppression activity ([5]; fig. 2D): did not exhibit significant suppressive activity
- IC50 [6]: 3.3 µM
- inhibition at 50 µM (mast cell degranulation): 29%
- IC50 [7]: < 12.5 µM
